How the values were obtained:
[1] = target: T1, human cathepsin-B (Cat-B) (Homo sapiens, UniProt P07858); experiment: Cathepsin-B inhibition screening; assay type: biochemical; conditions: over 10 min
T1 construct: purchased Calbiochem, Darmstadt, Germany; host or cells: recombinant
Procedure: The IC50 values were calculated with the program GraFit® using the two-parameter equation. More detailed experimental protocols for the assays against each proteolytic activity of the 20S proteasome, as well as against bovine pancreatic α-chymotrypsin, are already reported elsewhere (see also Supplementary Materials). Cat-B and Cat-L were purchased from Calbiochem, Darmstadt, Germany, and the related assays were performed as previously described. […] Assay for Bovine Pancreatic α-Chymotrypsin Inhibition The enzyme ([…]) was incubated at 20 °C with the test compound present at 10 μM (screening assay). The reaction buffer consisted of 50 mM Tris buffer pH 8.0 containing 100 mM NaCl, 5 mM EDTA and 7.5% DMSO. Product release from substrate hydrolysis ([…] final concentration, Suc-[…] from Bachem) was determined over a period of 10 min. Assay for Cathepsin-B and Cathepsin-L Inhibition Assays were performed at 25 °C in a 20 mM Tris-HCl buffer, pH 6.0, containing 5 mM […] Substrate (Cbz-Phe-Arg-AMC for both enzymes) and inhibitor stock solutions were prepared in DMSO (10% final concentration) and were diluted with assay buffer; enzymes were held in buffer. The final substrate concentration for inhibition assays was between 10.0 and 81.0 […] for CB (recombinant, human liver). […] μM and 140 μM. Product release from substrate hydrolysis was determined over a period of 10 min.

CCRF-CEM cells = experiment: Resazurin cytotoxicity assay, drug-sensitive CCRF-CEM leukemia cells; assay type: cell-based, human; conditions: cell growth, 72 h incubation, IC50 ± SD, n = 3
Procedure: Drug-sensitive CCRF-CEM and multidrug-resistant (MDR) P-glycoprotein (P-gp)-over-expressing CEM/ADR5000 leukemic cells were kindly provided by Prof. Axel Sauerbrey (Department of Pediatrics, University of Jena, Germany). Cells were cultured in RPMA1640 medium including 10% fetal bovine serum (FBS) and 1% penicillin (1000 U/mL)/streptomycin (100 µg/mL) (Life Technologies, Darmstadt, Germany). Doxorubicin (5000 ng/mL) was added to maintain overexpression of P-gp (MDR1 and ABCB1) in CEM/ADR5000 cells. Doxorubicin was obtained from the University Pharmacy of the University Medical Center Mainz. CEM/ADR5000 cells display a more than 1000-fold resistance to doxorubicin [27] and are therefore a suitable model to identify novel drugs without or very low cross-resistance.
The cytotoxic effects of the compounds solved in DMSO (Sigma-Aldrich, Taufkirchen, Germany) were tested by the resazurin assay. This assay is based on reduction of the indicator dye, resazurin, to the highly fluorescent resorufin by viable cells. Cells lethally damaged by cytotoxic compounds rapidly lose the enzymatic capability to reduce non-fluorescent resazurin to the highly fluorescent resorufin. As the reductive potential happens in a dose-dependent manner, this chemical reaction can be exploited to quantitatively determine the cytotoxic potential of investigational compounds and to measure dose-response relationships. With increasing concentrations of a cytotoxic drug, the fluorescence signal fades out. Aliquots of 10,000 cells/100 µL cells were seeded into 96-well plates (Thermo-Scientific, Dreieich, Germany) and immediately treated with various concentrations of each compound. After 72 h incubation at 37 °C, 20 µL resazurin 0.01% w/v solution (Invitrogen, Dreieich, Germany) were added to each well, and the plates were maintained at 37 °C for 4 h. Fluorescence was measuring by an Infinite M2000 Proplate reader (Tecan, Crailsheim, Germany) with an excitation wavelength of 544 nm and an emission wavelength of 590 nm. Each experiment was done at least three times with six replicates each. The viability was analyzed in comparison with untreated cells. […] It is a well-established measure to determine the cytotoxic potential of anticancer drugs. The IC50 values were calculated from a calibration curve by linear regression using Microsoft Excel.

[2] = system: human cathepsin-L (Cat-L); experiment: Cathepsin-L inhibition screening; assay type: biochemical; conditions: over 10 min
Procedure: 20S proteasome, isolated and purified from human erythrocytes, was obtained from a commercial source (Biomol GmbH, Hamburg, Germany), as well as the peptidic substrates (Bachem, Bubendorf, Switzerland) Suc-Leu-Leu-Val-Tyr-AMC, Boc-Leu-Arg-Arg-AMC and Cbz-Leu-Leu-Glu-AMC for ChT-L, T-L and PGPH (C-L) activity of the enzyme, respectively. The three distinct proteolytic activities of the 20S proteasome were measured by monitoring the hydrolysis of the substrates and detecting the fluorescence of the common product released, i.e., 7-amino-4-methyl coumarin (7-AMC), by means of an Infinite 200 PRO microplate reader (Tecan, Männedorf, Switzerland) at 30 °C with a 380-nm excitation filter and a 460-nm emission filter. All gold and silver complexes were tested against the three proteolytic activities of the 20S proteasome and against Cat-B, Cat-L and bovine pancreatic α-chymotrypsin at 10 µM concentrations over a period of 10 min using an equivalent amount of DMSO as a negative control. […]. The IC50 values were calculated with the program GraFit® using the two-parameter equation. More detailed experimental protocols for the assays against each proteolytic activity of the 20S proteasome, as well as against bovine pancreatic α-chymotrypsin, are already reported elsewhere (see also Supplementary Materials). Cat-B and Cat-L were purchased from Calbiochem, Darmstadt, Germany, and the related assays were performed as previously described. The employed fluorogenic substrate for both cysteine proteases was Cbz-Phe-Arg-AMC (80 µM for Cat-B; 5 µM for Cat-L). […]
Assay for Cathepsin-B and Cathepsin-L Inhibition
Assays were performed at 25 °C in a 20 mM Tris-HCl buffer, pH 6.0, containing 5 mM
EDTA, 2.5 mM DTT, 200 mM NaCl, 0.005% Brij 35 in a total volume of 285 µL. Substrate
(Cbz-Phe-Arg-AMC for both enzymes) and inhibitor stock solutions were prepared in
DMSO (10% final concentration) and were diluted with assay buffer; enzymes were held
for CB (recombinant, human liver). Inhibitors were used at concentrations between 0.35
µM and 140 µM. Product release from substrate hydrolysis was determined over a period

Compound	Cat-B Inhibition (%) at 10 µM [1]	IC50 (CCRF-CEM cells) [µM]	Cat-L Inhibition (%) at 10 µM [2]
CC[PH](CC)(CC)[Ag][Br] [Ag(PEt3)Br]	n.i.	1.5 ± 0.1	n.i.
CC[PH](CC)(CC)[Ag][Cl] [Ag(PEt3)Cl]	n.i.	1.36 ± 0.25	n.i.
CC[PH](CC)(CC)[Ag][I] [Ag(PEt3)I]	n.i.	1.28 ± 0.12	n.i.
CCP(CC)CC.[Br][Au] [Au(PEt3)Br]	31 ± 2.2%	0.28 ± 0.06	n.i.
CCP(CC)CC.[Au+].[Cl-] [Au(PEt3)Cl]	29 ± 0.2%	0.35 ± 0.03	n.i.
CC[P](CC)(CC)[Au][I] [Au(PEt3)I]	29 ± 1.7%	0.32 ± 0.07	n.i.
CCP(CC)CC.CCP(CC)CC.O=[N+]([O-])[O-].[Ag+] [[Ag(PEt3)2]NO3]	n.i.	–	20 ± 0.4%
CC(=O)OC[C@H]1O[C@@H]([S-])[C@H](OC(C)=O)[C@@H](OC(C)=O)[C@@H]1OC(C)=O.CCP(CC)CC.[Au+] [auranofin, Auranofin]	n.i.	0.22 ± 0.08	n.i.

Reference: PMC7582876, “Antiproliferative Properties of a Few Auranofin-Related Gold(I) and Silver(I) Complexes in Leukemia Cells and their Interferences with the Ubiquitin Proteasome System” (Molecules, 2020)
